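Exposure lasted 48 hours, with cells grown in 96-well plates and compounds tested at five concentrations. The concentration for full growth arrest is given as TGI.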 Some results are limits rather than exact numbers.

The results in this text go back to PubChem BioAssay (NCI).

Among the test systems are SNB-78 CNS; XF 498 CNS; M19-MEL melanoma; DMS 114 small cell lung; LXFL 529 NSCLC; KM20L2 colon; HOP-18 NSCLC.
Experiment in all cases: NCI anticancer screen, dose series, 48 h

As for `O=C(Nc1ccc(Cl)cc1)c1cccc([N+](=O)[O-])c1O`, the TGI was more than 37.5 µM in the assay with SNB-78 CNS; 8.31 µM with XF 498 CNS; 9.07 µM in the assay with M19-MEL melanoma; 14.8 µM in the assay on DMS 114 small cell lung; 39.8 µM with LXFL 529 NSCLC; 98.5 µM in the assay with KM20L2 colon. For the same compound, the TGI in the assay with HOP-18 NSCLC was more than 100 µM.
